ChEMBL document CHEMBL1139619, “Exploiting a basic chemosensitizing pharmacophore hypothesis. Part 1: synthesis and biological evaluation of novel arylbromide and bicyclic chemosensitizers against drug-resistant malaria parasites” (Bioorg Med Chem Lett, 2005)
Converted amounts (≈) assume the structure as drawn. “And” between values parts separate entries of the source, which are not always exact repeats. Equal values may be shown once.

Experiments:
[1] = tested on: Plasmodium falciparum; experiment: (§1) In vitro inhibitory concentration against chloroquine-enhancing Plasmodium falciparum FCM29 at 5 ug/mL; format: functional, organism-based
[2] = tested on: Plasmodium falciparum; experiment: as §1; format: functional
[3] = tested on: Plasmodium falciparum; experiment: (§2) In vitro inhibitory concentration against chloroquine-enhancing Plasmodium falciparum FCM29 at 2.5 ug/mL; format: functional
[4] = tested on: Plasmodium falciparum; experiment: (§3) In vitro inhibitory concentration against chloroquine-enhancing Plasmodium falciparum FCM29 at 1.25 ug/mL; format: functional, organism-based
[5] = tested on: Plasmodium falciparum; experiment: as §3; format: functional
[6] = tested on: Plasmodium falciparum; experiment: as §2; format: functional, organism-based
[7] = tested on: Plasmodium falciparum; experiment: (§4) In vitro inhibitory concentration against Plasmodium falciparum FCM29; format: functional
[8] = tested on: Plasmodium falciparum; experiment: In vitro inhibition against Plasmodium falciparum FCM29 at 0.62 ug/mL; format: functional, organism-based
[9] = tested on: Plasmodium falciparum; experiment: as §4; format: functional, organism-based
[10] = tested on: Plasmodium falciparum; experiment: In vitro inhibitory concentration against Plasmodium falciparum FCM29 at 0.62 ug/mL; format: functional
[11] = tested on: Plasmodium falciparum; experiment: In vitro inhibitory concentration against chloroquine-enhancing Plasmodium falciparum FCM29 at.62 ug/mL; format: functional, organism-based
[12] = tested on: Plasmodium falciparum; experiment: In vitro inhibitory concentration against chloroquine-enhancing Plasmodium falciparum FCM29 at2.50 ug/mL; format: functional
[13] = tested on: Plasmodium falciparum; experiment: In vitro inhibitory concentration against chloroquine-enhancing Plasmodium falciparum FCM29 at 2.50 ug/mL; format: functional, organism-based
[14] = tested on: Plasmodium falciparum; experiment: In vitro inhibitory concentration against Plasmodium falciparum FCM29 at 0.68 ug/mL; format: functional
[15] = tested on: Plasmodium falciparum; experiment: (§5) In vitro inhibitory concentration against chloroquine-enhancing Plasmodium falciparum FCM29 at 1.36 ug/mL; format: functional, organism-based
[16] = tested on: Plasmodium falciparum; experiment: as §5; format: functional
[17] = tested on: Plasmodium falciparum; experiment: In vitro inhibition against Plasmodium falciparum FCM29 at 0.68 ug/mL; format: functional, organism-based
[18] = tested on: Plasmodium falciparum; experiment: In vitro inhibition against Plasmodium falciparum FCM29 at 2 ug/mL; format: functional, organism-based
[19] = tested on: Plasmodium falciparum; experiment: In vitro inhibitory concentration against Plasmodium falciparum FCM29 at 3 ug/mL; format: functional
[20] = tested on: Plasmodium falciparum; experiment: (§6) In vitro inhibitory concentration against Plasmodium falciparum FCM29 at 1 ug/mL; format: functional
[21] = tested on: Plasmodium falciparum; experiment: In vitro inhibition against Plasmodium falciparum FCM29 at 3 ug/mL; format: functional, organism-based
[22] = tested on: Plasmodium falciparum; experiment: as §6; format: functional, organism-based
[23] = tested on: Plasmodium falciparum; experiment: (§7) In vitro inhibitory concentration against chloroquine-enhancing Plasmodium falciparum FCM29 at 1.5 ug/mL; format: functional
[24] = tested on: Plasmodium falciparum; experiment: In vitro inhibitory concentration against Plasmodium falciparum FCM29 at 2 ug/mL; format: functional
[25] = tested on: Plasmodium falciparum; experiment: as §7; format: functional, organism-based
[26] = tested on: Plasmodium falciparum; experiment: In vitro inhibitory concentration chloroquine-enhancing against Plasmodium falciparum FCM29 at 0.375 ug/mL; format: functional
[27] = tested on: Plasmodium falciparum; experiment: In vitro inhibitory concentration against chloroquine-enhancing Plasmodium falciparum FCM29 at 0.75 ug/mL; format: functional
[28] = tested on: Plasmodium falciparum; experiment: In vitro inhibitory concentration chloroquine-enhancing against chloroquine-enhancing Plasmodium falciparum FCM29 at 0.75 ug/mL; format: functional, organism-based
[29] = tested on: Plasmodium falciparum; experiment: In vitro inhibitory concentration against Plasmodium falciparum FCM29 at 1.5 ug/mL; format: functional
[30] = tested on: Plasmodium falciparum; experiment: (§8) In vitro inhibitory concentration against chloroquine-enhancing Plasmodium falciparum FCM29 at 2 ug/mL; format: functional, organism-based
[31] = tested on: Plasmodium falciparum; experiment: (§9) In vitro inhibitory concentration against chloroquine-enhancing Plasmodium falciparum FCM29 at 3 ug/mL; format: functional
[32] = tested on: Plasmodium falciparum; experiment: as §9; format: functional, organism-based
[33] = tested on: Plasmodium falciparum; experiment: as §8; format: functional
[34] = tested on: Plasmodium falciparum; experiment: (§10) In vitro inhibitory concentration against chloroquine-enhancing Plasmodium falciparum FCM29 at 0.5 ug/mL; format: functional, organism-based
[35] = tested on: Plasmodium falciparum; experiment: In vitro inhibitory concentration against Plasmodium falciparum FCM29 at 4 ug/mL; format: functional
[36] = tested on: Plasmodium falciparum; experiment: as §10; format: functional
[37] = tested on: Plasmodium falciparum; experiment: In vitro inhibition against Plasmodium falciparum FCM29 at 4 ug/mL; format: functional, organism-based
[38] = In vitro inhibitory concentration against chloroquine-enhancing Plasmodium falciparum FCM29 @ concentration of 00 ug/mL; format: functional
[39] = tested on: Plasmodium falciparum; experiment: (§11) In vitro inhibitory concentration against Plasmodium falciparum FCM29 @ concentration of 00 ug/mL; format: functional
[40] = as §11; format: functional
[41] = In vitro inhibitory concentration against chloroquine-enhancing Plasmodium falciparum FCM29 @ concentration of 1 ug/mL; format: functional
[42] = tested on: Plasmodium falciparum; experiment: In vitro inhibitory concentration against Plasmodium falciparum FCM29 @ concentration of 0.5 ug/mL; format: functional
[43] = tested on: Plasmodium falciparum; experiment: In vitro inhibitory concentration against Plasmodium falciparum FCM29 at 0.3 ug/mL; format: functional
[44] = tested on: Plasmodium falciparum; experiment: In vitro inhibition against Plasmodium falciparum FCM29 at 0.3 ug/mL; format: functional, organism-based
[45] = tested on: Plasmodium falciparum; experiment: (§12) In vitro inhibitory concentration against chloroquine-enhancing Plasmodium falciparum FCM29 at 0.6 ug/mL; format: functional, organism-based
[46] = tested on: Plasmodium falciparum; experiment: as §12; format: functional

CCN(CC)CCCNc1cccc(Br)c1
IC50 [1]: 7.2 nM
IC90 [2]: 210 nM
IC90 [3]: 443 nM
IC50 [4]: 68.5 nM
IC90 [5]: 392 nM
IC50 [6]: 38.5 nM
IC90 [7]: 80.3 µg/mL (≈ 282 µM)
IC50 [8]: 110 nM
IC50 [9]: 7.6 µg/mL (≈ 26.6 µM)
IC90 [10]: 809 nM

CCN(CC)CCCNc1ccccc1-c1ccccc1
IC50 [4]: 72.2 nM
IC50 [11]: 138 nM
IC90 [12]: 373 nM
IC90 [5]: 400 nM
IC50 [13]: 11.5 nM
IC90 [7]: 94.6 µg/mL (≈ 335 µM)
IC50 [9]: 3.1 µg/mL (≈ 11 µM)
IC90 [10]: 820 nM

CCN(CC)CCCNc1cccc(-c2ccccc2)c1
IC90 [14]: 781 nM
IC50 [15]: 109 nM
IC90 [16]: 630 nM
IC50 [17]: 160 nM
IC90 [7]: 20.8 µg/mL (≈ 73.6 µM)
IC50 [9]: 2.3 µg/mL (≈ 8.14 µM)

CCN(CC)CCCNc1ccccc1Br
IC50 [18]: 28.8 nM
IC90 [19]: 153 nM
IC90 ([20]; Plasmodium falciparum): 290 nM
IC50 [21]: 6.1 nM
IC50 ([22]; Plasmodium falciparum): 58.2 nM
IC90 [23]: 195 nM
IC90 [24]: 134 nM
IC50 [25]: 40.3 nM
IC50 [9]: 3.7 µg/mL (≈ 13 µM)

CCN(CC)CCCNc1ccc(-c2ccccc2)cc1
IC90 [26]: 98.2 nM and 368 nM
IC90 [27]: 198 nM
IC50 [28]: 54 nM
IC90 [29]: 114 nM
IC90 [7]: 18.5 µg/mL (≈ 65.5 µM)
IC50 [25]: 25.9 nM
IC50 [9]: 2.9 µg/mL (≈ 10.3 µM)

CCN(CC)CCCOc1ccccc1-c1ccccc1
IC50 [30]: 7.6 nM
IC90 ([20]; Plasmodium falciparum): 534 nM
IC90 [31]: 157 nM
IC50 ([22]; Plasmodium falciparum): 53.9 nM
IC90 [23]: 301 nM
IC50 [32]: 3 nM
IC90 [33]: 191 nM
IC90 [7]: 22.3 µg/mL (≈ 78.7 µM)
IC50 [25]: 42.9 nM
IC50 [9]: 3.3 µg/mL (≈ 11.6 µM)

CCN(CC)CCCOc1cccc(-c2ccccc2)c1
IC50 [30]: 77.7 nM
IC50 [18]: 70.9 nM
IC50 [34]: 152 nM
IC90 [20]: 255 nM and 745 nM
IC50 [22]: 119 nM
IC50 ([22]; Plasmodium falciparum): 101 nM
IC90 [35]: 73.2 nM
IC90 [36]: 736 nM
IC90 [24]: 205 nM
IC90 [33]: 556 nM
IC90 [7]: 49.5 µg/mL (≈ 175 µM)
IC50 [37]: 3.1 nM
IC50 [9]: 3.1 µg/mL (≈ 10.9 µM)

CCN(CC)CCCNc1ccc(Br)cc1
IC50 [18]: 69.3 nM
IC50 [38]: 161 nM
IC50 [34]: 146 nM
IC90 [39]: 843 nM
IC90 [35]: 273 nM
IC90 [36]: 745 nM
IC90 [24]: 272 nM
IC50 [40]: 161 nM
IC50 [41]: 95.9 nM
IC90 [7]: 66.7 µg/mL (≈ 234 µM)
IC50 [37]: 28.7 nM
IC50 [9]: 6.1 µg/mL (≈ 21.4 µM)
IC90 [42]: 745 nM

CCN(CC)CCCOc1ccc(-c2ccccc2)cc1
IC90 [43]: 655 nM
IC50 [44]: 169 nM
IC50 [45]: 101 nM
IC90 [46]: 311 nM
IC90 [7]: 24.4 µg/mL (≈ 86.1 µM)
IC50 [9]: 1.7 µg/mL (≈ 6 µM)
